Data on 25 compounds can be found in patent US8993594B2, “Isoquinolin-1(2H)-one derivatives as PARP-1 inhibitors” (Nerviano Medical Sciences S.R.L., priority 2009, dated 2015).

Molecules are shown by their SMILES. Structures can show the parent of a compound that is named as a salt.

One series addresses PARP-1 FL (Homo sapiens, UniProt P09874). Put plainly: Fluorescence polarization probe displacement assay. It is filed as binding. To be noted: for DC50: half maximal displacement concentration.
The test system of series [1] is hydrogen peroxide induced PAR formation in HeLa cells. Briefly: Cellular PAR assay (inhibition of hydrogen peroxide induced PAR formation). The conditions noted are these: Homo sapiens, 0.1 mM hydrogen peroxide 15 min. It is filed as cell-based.
Another series concerns the target PARP-2 FL (Homo sapiens, UniProt Q9UGN5). Put plainly: Fluorescence polarization probe displacement assay. The conditions noted are these: for DC50: compound P1 as the probe. The class given is binding.
Another series deals with T1, PARP-3 FL (Homo sapiens, UniProt Q9Y6F1).
T1 sequence (Q9Y6F1 1-533): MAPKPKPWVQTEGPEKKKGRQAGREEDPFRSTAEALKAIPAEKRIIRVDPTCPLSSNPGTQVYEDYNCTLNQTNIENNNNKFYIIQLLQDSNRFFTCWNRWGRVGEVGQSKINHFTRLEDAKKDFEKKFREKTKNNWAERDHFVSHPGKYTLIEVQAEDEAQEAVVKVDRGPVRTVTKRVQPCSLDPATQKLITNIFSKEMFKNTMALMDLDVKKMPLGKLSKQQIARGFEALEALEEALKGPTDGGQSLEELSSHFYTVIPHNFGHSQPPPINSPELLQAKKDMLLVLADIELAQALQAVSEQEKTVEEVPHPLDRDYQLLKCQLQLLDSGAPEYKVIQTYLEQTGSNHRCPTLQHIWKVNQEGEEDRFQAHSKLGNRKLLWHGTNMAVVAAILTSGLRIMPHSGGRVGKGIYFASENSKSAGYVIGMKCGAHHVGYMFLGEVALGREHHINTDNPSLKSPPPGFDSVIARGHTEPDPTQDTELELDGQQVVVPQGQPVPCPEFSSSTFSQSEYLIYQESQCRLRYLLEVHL
Briefly: Fluorescence polarization probe displacement assay. To be noted: compound P1 as the probe. The class given is binding. (Fluorescence polarisation rises when a labelled molecule tumbles more slowly, as on binding a larger partner.)

The nature of series [2]: Pharmacokinetics and oral bioavailability in the mouse. The class given is in vivo.
Protocol: The compounds were formulated in 10% tween 80/dextrose for intravenous bolus administration while oral administrations were performed using the compounds formulated in 0.5% methylcellulose. A single administration at the dose of 10 mg/kg was given and three male animals for each route were used. […] Plasma samples were prepared by plasma proteins precipitation adding 200 µl of methanol to 10 µl of plasma in a 96 well plate. […] The supernatant was considered as final extract and injected onto the LC-MS-MS system (HPLC system: Hewlett Packard 1100 series using Atlantis HILIC Silica 50*2.1 mm 5.0 μM analytical column; MS instrument: Perkin Elmer SCIEX API 2000 and ionization performed with Turbo Ion Spray in positive ion mode). Lower limit of quantification is 5.0 ng/ml, upper limit of quantification is 10000 ng/ml. […] Non-compartmental method (linear trapezoidal rule and linear regression analysis of natural log-transformed plasma concentrations vs. time data) was used. After intravenous dosing, C0 was set equal to C0.083, Absolute bioavailability (F) was calculated from the ratio of average oral to IV (intravenous) dose-normalized plasma AUC (area under curve) values.

PARP-2 FL, sequence (Q9UGN5 whole entry): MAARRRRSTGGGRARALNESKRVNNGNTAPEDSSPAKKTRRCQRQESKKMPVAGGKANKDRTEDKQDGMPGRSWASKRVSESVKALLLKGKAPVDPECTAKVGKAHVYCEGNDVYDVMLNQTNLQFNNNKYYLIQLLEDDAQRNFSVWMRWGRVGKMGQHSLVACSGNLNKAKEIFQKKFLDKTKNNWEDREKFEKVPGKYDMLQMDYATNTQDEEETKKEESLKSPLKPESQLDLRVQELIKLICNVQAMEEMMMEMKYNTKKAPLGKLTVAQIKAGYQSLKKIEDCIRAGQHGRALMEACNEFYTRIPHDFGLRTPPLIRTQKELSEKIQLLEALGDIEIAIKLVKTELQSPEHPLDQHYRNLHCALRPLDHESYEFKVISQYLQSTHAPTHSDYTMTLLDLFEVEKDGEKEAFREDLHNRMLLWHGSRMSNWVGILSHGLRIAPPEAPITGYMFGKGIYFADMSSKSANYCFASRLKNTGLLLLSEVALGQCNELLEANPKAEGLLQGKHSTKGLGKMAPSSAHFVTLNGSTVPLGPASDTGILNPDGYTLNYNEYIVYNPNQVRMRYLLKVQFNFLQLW
PARP-1 FL, sequence (P09874 whole entry): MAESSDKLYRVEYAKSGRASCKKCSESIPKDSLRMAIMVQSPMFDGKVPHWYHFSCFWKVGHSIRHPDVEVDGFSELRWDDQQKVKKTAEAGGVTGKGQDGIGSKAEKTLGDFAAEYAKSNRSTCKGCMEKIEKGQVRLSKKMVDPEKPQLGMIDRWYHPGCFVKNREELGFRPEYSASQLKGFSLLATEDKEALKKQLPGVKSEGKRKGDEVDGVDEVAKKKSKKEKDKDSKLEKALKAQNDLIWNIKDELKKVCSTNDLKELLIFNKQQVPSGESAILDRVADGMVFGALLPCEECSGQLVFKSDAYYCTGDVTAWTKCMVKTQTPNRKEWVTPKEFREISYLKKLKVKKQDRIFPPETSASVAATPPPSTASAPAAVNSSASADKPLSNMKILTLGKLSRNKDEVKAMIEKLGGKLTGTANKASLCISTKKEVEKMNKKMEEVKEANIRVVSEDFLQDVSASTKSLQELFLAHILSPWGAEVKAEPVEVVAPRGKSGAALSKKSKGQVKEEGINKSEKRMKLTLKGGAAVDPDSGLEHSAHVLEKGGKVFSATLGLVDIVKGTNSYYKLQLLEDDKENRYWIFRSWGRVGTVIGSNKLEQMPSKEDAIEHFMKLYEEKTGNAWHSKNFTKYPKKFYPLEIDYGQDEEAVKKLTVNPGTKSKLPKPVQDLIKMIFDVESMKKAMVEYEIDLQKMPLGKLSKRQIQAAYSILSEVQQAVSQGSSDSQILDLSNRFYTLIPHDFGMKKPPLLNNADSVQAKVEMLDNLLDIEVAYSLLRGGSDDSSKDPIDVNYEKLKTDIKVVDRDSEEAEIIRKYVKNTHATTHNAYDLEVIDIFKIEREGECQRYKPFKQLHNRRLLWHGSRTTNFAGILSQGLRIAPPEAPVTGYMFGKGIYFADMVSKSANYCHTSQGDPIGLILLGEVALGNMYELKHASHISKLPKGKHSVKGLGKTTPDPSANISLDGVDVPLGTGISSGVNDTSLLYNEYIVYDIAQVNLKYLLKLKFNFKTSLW
Protocol for PARP-1 FL: (§1) Affinity of the tested compounds and their selectivity with respect to the different PARP isoforms of interest was quantified in a displacement assay.
(§2) In all of the experiments, the polarization signal was measured using a Saphire2 plate reader (Tecan). Data analysis was performed using Dynafit software. In particular, titration data were fitted to the following equilibria: Enzyme+probe <==> Complex Enzyme-probe, while displacement data were fitted to the following equilibria: Enzyme+probe <==> Complex Enzyme-probe, Enzyme+Compound <==> Complex Enzyme-Compound, whereby binding of probe and compound on the enzyme are mutually exclusive (pure competitive mechanism). Displacement data were also fitted using Excel spreadsheet (Microsoft Inc. Seattle, USA) to a four parameter logistic model (4PL), or Hill-Slope model to calculate DC50s where the DC50 value represents the compound concentration at which the polarization signal is diminished by 50% compared to untreated controls.
(§3) In agreement, affinity binding constants (KD) were determined by fitting with a pure competitive mechanism. KD values are the average of three independent experiments.
Protocol for PARP-2 FL: as §1, §2, §3
Protocol for PARP-3 FL: as §1, §2, §3

Compound `O=c1[nH]c(-c2ccccc2)c(OCCCN2CCCCC2)c2ccc(Cl)cc12` [Compound 37, 7-Chloro-3-phenyl-4-(3-piperidin-1-yl-propoxy)-2H-isoquinolin-1-one] registered a DC50 on PARP-1 FL of less than 0.25 µM. Moreover, in series [1], half-maximal inhibition (IC50) required 0.62 µM.

As for `CN1CCN(CCCOc2c(-c3ccccc3)[nH]c(=O)c3ccccc23)CC1` [Compound 20, 4-[3-(4-Methyl-piperazin-1-yl)-propoxy]-3-phenyl-2H-isoquinolin-1-one di hydrochloride], on PARP-1 FL, the affinity, expressed as Kd, was 0.05 µM and the DC50 was less than 0.25 µM. Besides, on PARP-2 FL, the dissociation constant Kd (usually a measure of binding affinity in units of concentration) came out at 5.35 µM and the DC50 was 5.52 µM. In series [1], 6.5 µM corresponded to half-maximal inhibition (IC50).

With `O=c1[nH]c(-c2ccccc2)c(OCCCN2CCCC2)c2ccccc12` [Compound 21, 3-Phenyl-4-(3-pyrrolidin-1-yl-propoxy)-2H-isoquinolin-1-one], at PARP-1 FL, the Kd was 0.04 µM and the DC50 is less than 0.25 µM. At PARP-2 FL, this compound came in with a Kd of 1.36 µM and a DC50 of 1.58 µM. Moreover, the IC50 (usually the midpoint of a concentration-inhibition curve) in series [1] turned out to be 8.3 µM.

In the case of `NCCOc1c(-c2ccccc2)[nH]c(=O)c2ccccc12` [Compound 1, 4-(2-Amino-ethoxy)-3-phenyl-2H-isoquinolin-1-one hydrochloride], at PARP-1 FL, the dissociation constant (Kd) was less than 0.03 µM and the DC50 is less than 0.25 µM. Besides, at PARP-2 FL, the dissociation constant Kd amounted to 3.07 µM and the DC50 came out at 2.89 µM. The compound also gave an IC50 in series [1] of 0.79 µM.

Turning to `CCN(CC)CCCOc1c(-c2ccccc2)[nH]c(=O)c2ccccc12` [Compound 18, 4-(3-Diethylamino-propoxy)-3-phenyl-2H-isoquinolin-1-one hydrochloride], on PARP-1 FL, the Kd is less than 0.03 µM and the DC50 is less than 0.25 µM. For the same compound, binding at PARP-2 FL was characterised by a dissociation constant (Kd) of 8.65 µM. In addition, the IC50 in series [1] stood at 0.85 µM.

At PARP-1 FL, `O=c1[nH]c(-c2ccccc2)c(OCCCN2CCCCC2)c2ccccc12` [Compound 5, 3-Phenyl-4-(3-piperidin-1-yl-propoxy)-2H-isoquinolin-1-one trifluoroacetate] showed an equilibrium dissociation constant (Kd) of less than 0.03 µM and a DC50 of less than 0.25 µM. Also, at PARP-2 FL, binding was characterised by a dissociation constant (Kd) of 4.59 µM and the DC50 came out at 4.34 µM. For the same compound, in series [1], the IC50 is 1.44 µM.

On to `NCCOc1c(-c2ccsc2)[nH]c(=O)c2ccccc12` [Compound 29, 4-(2-Amino-ethoxy)-3-thiophen-3-yl-2H-isoquinolin-1-one hydrochloride], for which the values for the DC50 on PARP-3 FL, at PARP-1 FL and at PARP-2 FL were 0.2 µM, less than 0.25 µM and 0.54 µM, respectively. In addition, the Kd at PARP-1 FL is less than 0.03 µM.

Turning to `NCCCCOc1c(-c2ccccc2)[nH]c(=O)c2ccccc12` [Compound 22, 4-(4-Amino-butoxy)-3-phenyl-2H-isoquinolin-1-one hydrochloride], the Kd was less than 0.03 µM at PARP-1 FL and 1.34 µM at PARP-2 FL. Also, the DC50 at PARP-1 FL was less than 0.25 µM; on PARP-2 FL, 4.08 µM. This compound also displayed an IC50 in series [1] of 9.5 µM.

With `CC(=O)N1CCN(CCOc2c(-c3ccccc3)[nH]c(=O)c3ccccc23)CC1` [Compound 7, 4-[2-(4-Acetyl-piperazin-1-yl)-ethoxy]-3-phenyl-2H-isoquinolin-1-one], at PARP-1 FL, the Kd was less than 0.03 µM and the DC50 is less than 0.25 µM. On PARP-2 FL, this compound had a dissociation constant (Kd) greater than 10 µM and a DC50 greater than 10 µM.

For `NC(=O)c1cccc(N)c1` [Compound 3-AB, 3-aminobenzamide, reference compound], the “Displacement of the probe (compound P1 or compound P3)” value at PARP-1 FL (from all of the tested PARP isoforms) is given as “fully displaced”.

For `CNCCCOc1c(-c2ccccc2)[nH]c(=O)c2ccccc12.Cl` [Compound 12, 4-(3-Methylamino-propoxy)-3-phenyl-2H-isoquinolin-1-one hydrochloride], at PARP-1 FL, binding was characterised by a dissociation constant (Kd) of 0.05 µM and the DC50 is less than 0.25 µM. For the same compound, the “F on AUC” value in series [2] (10 mg/kg, ratio of oral to IV dose-normalized plasma AUC) is on record as 17%. The clearance in series [2] (male, Balb Nu/Nu, plasma, 10 mg/kg intravenous bolus, mean value, read-out: CL(IV bolus)) was 177 mL/min/kg. Besides, the Vd in series [2] (male, Balb Nu/Nu, plasma, 10 mg/kg intravenous bolus, mean value, read-out: Vdss (IV bolus)) amounted to 3.3 L/kg. Further, in series [2] (male, Balb Nu/Nu, plasma, 10 mg/kg oral, mean value), the AUC (usually the area under the concentration-time curve, a measure of exposure) came out at 0.52 µM·h. Also, the half-life in series [2] (male, Balb Nu/Nu, plasma, 10 mg/kg oral, mean value, read-out: T½ (oral) (converted)) is 1.19 h. Further, at PARP-2 FL, the Kd was 1.65 µM and the DC50 turned out to be 2.91 µM. For the same compound, in series [1], the IC50 came to 0.42 µM.

At PARP-1 FL, `CC(=O)NCCCOc1c(-c2ccccc2)[nH]c(=O)c2ccccc12` [Compound 4, N-[3-(1-Oxo-3-phenyl-1,2-dihydro-isoquinolin-4-yloxy)-propyl]-acetamide] returned an equilibrium dissociation constant (Kd) of 0.19 µM and a DC50 of 0.31 µM. Moreover, on PARP-2 FL, the affinity, expressed as Kd, was 0.95 µM and the DC50 amounted to 0.91 µM.

For `NCCCOc1c(-c2ccccc2)[nH]c(=O)c2ccccc12` [Compound 3, 4-(3-Amino-propoxy)-3-phenyl-2H-isoquinolin-1-one hydrochloride], the results for the dissociation constant (Kd) on PARP-1 FL and on PARP-2 FL were less than 0.03 µM and 3.92 µM, respectively. Moreover, the DC50 at PARP-1 FL was less than 0.25 µM; at PARP-2 FL, 4.1 µM. This compound also gave a half-maximal inhibitory concentration (IC50) in series [1] of 3.26 µM.

As for `O=c1[nH]c(-c2ccccc2)c(OC2CCNCC2)c2ccc(F)cc12` [Compound 85, 7-fluoro-3-phenyl-4-(piperidin-4-yloxy)isoquinolin-1(2H)-one hydrochloride], the DC50 on PARP-3 FL turned out to be 0.54 µM; at PARP-1 FL, 0.38 µM; on PARP-2 FL, 4.35 µM.

As to `COc1cccc(-c2[nH]c(=O)c3ccccc3c2OCCCN2CCCCC2)c1` [Compound 10, 3-(3-Methoxy-phenyl)-4-(3-piperidin-1-yl-propoxy)-2H-isoquinolin-1-one], the dissociation constant Kd was found to be 0.05 µM on PARP-1 FL and 4.39 µM on PARP-2 FL. The DC50 at PARP-1 FL was found to be 0.35 µM. In addition, in series [1], the midpoint of inhibition, the IC50, lay at 0.33 µM.

Consider `O=c1[nH]c(-c2ccccc2)c(OCCCN2CCNCC2)c2ccccc12` [Compound 14, 3-Phenyl-4-(3-piperazin-1-yl-propoxy)-2H-isoquinolin-1-one di-hydrochloride], for which, at PARP-1 FL, the dissociation constant (Kd) was less than 0.03 µM and the DC50 was less than 0.25 µM. Besides, on PARP-2 FL, binding was put at a Kd of 6.13 µM and the DC50 came to 4.29 µM. The compound further returned an IC50 in series [1] of 4.2 µM.

As for `COc1ccc(-c2[nH]c(=O)c3ccccc3c2OCCCN2CCCCC2)cc1` [Compound 23, 3-(4-Methoxy-phenyl)-4-(3-piperidin-1-yl-propoxy)-2H-isoquinolin-1-one], the DC50 on PARP-3 FL was 0.48 µM; on PARP-1 FL, less than 0.25 µM. At PARP-1 FL, this compound showed a Kd of less than 0.03 µM. Also, the IC50 in series [1] was determined as 0.17 µM.

Regarding `CNCCOc1c(-c2ccccc2)[nH]c(=O)c2ccccc12` [Compound 16, 4-(2-Methylamino-ethoxy)-3-phenyl-2H-isoquinolin-1-one], at PARP-1 FL, the Kd was less than 0.03 µM and the DC50 was less than 0.25 µM. In addition, on PARP-2 FL, the Kd was determined as 2.44 µM. Further, in series [1], it took 0.48 µM to reach half-maximal inhibition (IC50).

On PARP-1 FL, `CC(=O)NCCOc1c(-c2ccccc2)[nH]c(=O)c2ccccc12` [Compound 2, N-[2-(1-Oxo-3-phenyl-1,2-dihydro-isoquinolin-4-yloxy)-ethyl]-acetamide] returned a Kd of 0.2 µM and a DC50 of 0.32 µM. Further, the affinity at PARP-2 FL, expressed as Kd, was 6.28 µM. This compound also came in with an IC50 in series [1] of 6.72 µM.

Consider `CN(C)CCOc1c(-c2ccccc2)[nH]c(=O)c2ccccc12` [Compound 17, 4-(2-Dimethylamino-ethoxy)-3-phenyl-2H-isoquinolin-1-one], for which, on PARP-1 FL, the equilibrium dissociation constant (Kd) is less than 0.03 µM and the DC50 is less than 0.25 µM. Also, at PARP-2 FL, the Kd was determined as 1.01 µM and the DC50 stood at 3.28 µM. Also, the IC50 in series [1] came to 0.34 µM.

At PARP-1 FL, `CN1CCN(CCOc2c(-c3ccccc3)[nH]c(=O)c3ccccc23)CC1` [Compound 19, 4-[2-(4-Methyl-piperazin-1-yl)-ethoxy]-3-phenyl-2H-isoquinolin-1-one di hydrochloride] had a Kd of less than 0.03 µM and a DC50 of less than 0.25 µM. Further, the dissociation constant Kd at PARP-2 FL came out at 7.29 µM.

Turning to `COc1cccc(-c2[nH]c(=O)c3ccccc3c2OCCN2CCCCC2)c1` [Compound 9, 3-(3-Methoxy-phenyl)-4-(2-piperidin-1-yl-ethoxy)-2H-isoquinolin-1-one], the figures for the DC50 on PARP-1 FL and at PARP-2 FL were 0.37 µM and 0.86 µM, respectively.

At PARP-1 FL, `O=c1[nH]c(-c2ccccc2)c(OCCN2CCNCC2)c2ccccc12` [Compound 6, 3-Phenyl-4-(2-piperazin-1-yl-ethoxy)-2H-isoquinolin-1-one di-hydrochloride] had a Kd of less than 0.03 µM and a DC50 of less than 0.25 µM. Moreover, at PARP-2 FL, the Kd is greater than 10 µM and the DC50 is greater than 10 µM. Further, the IC50 in series [1] worked out at 0.86 µM.

In the case of `O=c1[nH]c(-c2ccccc2)c(OCCCN2CCCCC2)c2ccc(F)cc12` [Compound 38, 7-Fluoro-3-phenyl-4-(3-piperidin-1-yl-propoxy)-2H-isoquinolin-1-one], the DC50 at PARP-1 FL was less than 0.25 µM; at PARP-2 FL, 3.78 µM. In series [1], this compound yielded an IC50 of 0.3 µM.

Turning to `O=C(NCCCOc1c(-c2ccccc2)[nH]c(=O)c2ccccc12)c1ccccc1` [Compound 8, N-[3-(1-Oxo-3-phenyl-1,2-dihydro-isoquinolin-4-yloxy)-propyl]benzamide], the DC50 at PARP-1 FL amounted to 0.82 µM; at PARP-2 FL it was 4.29 µM.
